Here are results for three molecules from patent US20220168442A1, “ARTIFICIAL T-CELL STIMULATING MATRIX FOR IMMUNOTHERAPY” (The Johns Hopkins University, priority 2019, published 2022).

Holding throughout (format): cell-based, mouse
One assay concerns B6 CD8+ T cells. Nature of the assay: CD8+ T cell fold expansion after seven days of stimulation on aTM. The settings on record: added to culture on 0.5-kPa aTM; 100 μM; same amount of stimulatory ligand. Here is the method: Murine cells were obtained from adult mouse lymph nodes and spleens. Obtained cells were treated with ACK lysing buffer to lyse red blood cells and filtered through cell strainers to isolate splenocytes. PBMCs from healthy donors were isolated by Ficoll-Paque PLUS gradient centrifugation (GE Healthcare). CD8+T lymphocytes were then isolated from splenocytes or PBMCs by negative selection using CD8+ isolation kits and magnetic columns from Miltenyi Biotech (Auburn, Calif., USA) according to the manufacturer's protocol. […]
CD8+ T cells were isolated as previous described and resuspended in 1 mL T cell culture media. […] The CFSE fluorescence intensity was measured using BD FACSCALIBUR™ flow cytometer. Cell proliferation was analyzed using FLOWJO™ with diluted CFSE fluorescence peaks signifying population after each round of cell division. A subset of the cells were allowed to expand for 7 days and viable cells were counted with a hemocytometer to determine fold expansion. […]

A further assay relates to murine CD8+ T cells. Nature of the assay: aLN ex vivo CD8+ T cell expansion and phenotype, day 7. Here is the method:
Artificial lymph nodes (aLNs) were synthesized by mixing 0.8 w/v % thiolated HA with either 0.1 or 2 w/v % of the crosslinker PEG-diacrylate (PEGDA), which was pre-mixed with 5 μg/mL thiolated anti-CD3 and anti-CD28 antibodies, and either no protein, 100 μM cyclic RGD, or 20 μg/mL laminin was added. Isolated murine CD8+ T cells were added to the surface of the aLNs. On day 7 viable cells were harvested, counted, and stained for phenotypic markers for flow cytometry (CD8, CD44, CD62L). For in vivo experiments, B6 mice received subcutaneous injection of aLN treatment (no protein, 570 Pa, with antigen-specific stimulation from KbSIY for 2C CD8+ T cells) or PBS. 2C CD8+ T cells were isolated, labeled with CellTrace CFSE dye and injected retro-orbitally on the same day. On days 3 and 6, blood samples were taken for CFSE division analysis via flow cytometry.

Another assay relates to PMEL CD8+ T cells. Nature of the assay: aTM with laminin or cyclic RGD attached, T cell expansion. The settings on record: laminin 20 μg/mL or cyclic RGD 100 μM incorporated into aTM. Here is the method: HA solution was prepared as previously described. Anti-CD3 and anti-CD28 antibodies were purchased respectively from BioXCell (145-2C11; West Lebanon, N.H., USA) and BioLegend (37.51; San Diego, Calif., USA). […] PEGDA crosslinker was added to reduced MHC-Ig dimers, anti-CD3 and anti-CD28 antibody solutions to a final concentration of 0.5% PEGDA for preparation for crosslinking. Prior to hydrogel formation, MHC-Ig dimers or anti-CD3 antibodies and anti-CD28 co-stimulatory signals with 0.5% PEGDA were added to the HA solution to directly attach signals on HA through thiol-diene chemistry. The HA-antibody solution was then mixed with PEGDA crosslinker at a 4:1 ratio to be plated. The aTM was allowed to form within flat-bottomed tissue culture plates to form a complete layer for at least 1 hour prior to washing 3 times with 1×PBS to remove any unbound stimulatory signal, and cells were subsequently plated. To investigate the effects of extracellular matrix (ECM) protein attachment, cyclic RGD (CCRRGDWLC (SEQ ID NO: 1)), which was synthesized by solid phase methods as described previously (Li et al., Stem Cells Transl. Med., 3: 662-670 (2014)), or laminin (ThermoFisher) were added to make a HA solution with protein concentration of 100 μM and 20 μg/mL, respectively, prior to the hydrogel formation. […]

Ends that are not written are not given here.

Turning to `Cc1ccc2c(c1)C(=O)C1(O)CCN(c3ccccc3)C1=N2` (centres unmarked) [blebbistatin], in the assay with B6 CD8+ T cells, the “CD8+ T cell expansion in the presence of the inhibitor” value is on record as “abolished”. “CCRRGDWLC (SEQ ID NO: 1) (also: cyclic (mode not given here)) [cyclic RGD cell-adhesive peptide attached to aTM / aLN]”: the “percent memory T cells” value in the assay with murine CD8+ T cells (570-Pa aLN, day 7) is listed as “increased”. Moreover, the “total expansion compared to no protein and laminin” value with murine CD8+ T cells (attached to softer aLNs) is “nearly doubled total expansion”. Moreover, the “effect of cell-adhesive ligands on stimulation of antigen-specific PMEL CD8+ T cells” value in the assay with PMEL CD8+ T cells is “further increased T cell proliferation”. On to laminin, for which the “percent activated T cells” value with murine CD8+ T cells (570-Pa aLN, day 7) is reported as “increased”.
